The source of these data is PubChem BioAssay (NCI).

Test systems include SN12C renal; DU-145 prostate; OVCAR-3 ovarian; CAKI-1 renal; HL-60(TB) leukemia; OVCAR-4 ovarian; A549 NSCLC; K-562 leukemia; A498 renal; HT29 colon.
Test in all cases: DTP human tumour cell line panel, 48 h

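1) Cells in 96-well plates. 2) Compound, 48 h, 5 concentrations. 3) Linear interpolation between surrounding doses. 4) Unreached endpoint = highest concentration. GI50: concentration for 50% inhibition of growth. TGI: concentration producing complete growth inhibition.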

Turning to `CCS(=O)(=O)c1ccc(OC)c(Nc2nccc(N(C)c3ccc4c(C)[nH]nc4c3)n2)c1`, the GI50 in the assay with SN12C renal is 5.23 µM; in the assay with DU-145 prostate, 8.45 µM; in the assay on OVCAR-3 ovarian, 7.42 µM; with CAKI-1 renal, 3.75 µM; with HL-60(TB) leukemia it was 7.37 µM; in the assay on OVCAR-4 ovarian it was 5.66 µM. In addition, the GI50 in the assay on A549 NSCLC is 9.83 µM; with K-562 leukemia it was 2.79 µM; with A498 renal, 1.18 µM; in the assay on HT29 colon, 5.66 µM. The TGI in the assay with SN12C renal is over 25 µM; with DU-145 prostate it was over 25 µM; with OVCAR-3 ovarian it was over 25 µM; in the assay on CAKI-1 renal, 12.3 µM; in the assay with HL-60(TB) leukemia it was 18.9 µM; in the assay on OVCAR-4 ovarian, over 25 µM. Also, the TGI with A549 NSCLC is over 25 µM; in the assay on K-562 leukemia, 16.8 µM; in the assay with A498 renal, 6.58 µM; in the assay on HT29 colon it was 16.4 µM.
As for `N#CSCC1CC(O)(c2ccccc2)C(c2ccccc2)C(c2ccc(F)cc2)O1` (stereo not drawn), the GI50 in the assay on SN12C renal was 2.05 µM; with DU-145 prostate, 2.16 µM; in the assay on OVCAR-3 ovarian it was 1.52 µM; in the assay with CAKI-1 renal, 2.39 µM; with HL-60(TB) leukemia, 0.672 µM; in the assay with OVCAR-4 ovarian, 2.84 µM. Moreover, the GI50 with A549 NSCLC was 8.38 µM; in the assay with K-562 leukemia, 1.5 µM; with A498 renal, 18.1 µM; in the assay on HT29 colon, 2.61 µM. Also, the TGI amounted to 5.27 µM with SN12C renal; 5 µM with DU-145 prostate; 2.99 µM in the assay with OVCAR-3 ovarian; 5.46 µM with CAKI-1 renal; 2.96 µM with HL-60(TB) leukemia; 10.9 µM in the assay on OVCAR-4 ovarian. Further, the TGI with A549 NSCLC came out at 40.5 µM; in the assay with K-562 leukemia, 5.97 µM; in the assay on A498 renal, 45.9 µM; in the assay on HT29 colon, 11.6 µM.
As for `O=C(Nc1ccncc1)C(=O)c1cn(S(=O)(=O)c2ccccc2F)c2ccccc12`, the GI50 with SN12C renal is 2.65 µM; in the assay on DU-145 prostate, 3.48 µM; with OVCAR-3 ovarian, 0.893 µM; in the assay on CAKI-1 renal it was 2.43 µM; in the assay on HL-60(TB) leukemia, 0.576 µM; in the assay with OVCAR-4 ovarian, 3.59 µM. The GI50 was 13.5 µM in the assay with A549 NSCLC, 1.37 µM in the assay on K-562 leukemia, 5.47 µM in the assay with A498 renal and 0.45 µM in the assay on HT29 colon. The concentration for total growth inhibition (TGI) in the assay with SN12C renal was over 90.6 µM; in the assay with DU-145 prostate, 18.5 µM; with OVCAR-3 ovarian it was 6.85 µM; in the assay with CAKI-1 renal it was over 70.8 µM; in the assay on OVCAR-4 ovarian, over 100 µM; with A549 NSCLC, 59.8 µM. Moreover, the results for the TGI in the assay on K-562 leukemia, in the assay on A498 renal and with HT29 colon were over 100 µM, 63.3 µM and over 31.9 µM, respectively.
For `COc1ccc(/C=C(\C#N)c2cc(OC)c3c(c2)OCO3)cc1`, the GI50 in the assay with SN12C renal was 0.0583 µM; in the assay with DU-145 prostate, 0.0256 µM; in the assay with OVCAR-3 ovarian it was under 0.01 µM; in the assay with CAKI-1 renal, 0.465 µM; in the assay on HL-60(TB) leukemia it was 0.0128 µM; with OVCAR-4 ovarian, 0.0617 µM. Besides, the GI50 in the assay with A549 NSCLC is under 0.0148 µM; with K-562 leukemia, under 0.01 µM; in the assay with A498 renal, under 0.01 µM; with HT29 colon, under 0.01 µM. In addition, the TGI in the assay with SN12C renal is over 100 µM; in the assay on DU-145 prostate it was 0.186 µM; in the assay with OVCAR-3 ovarian, under 0.0136 µM; with CAKI-1 renal, 90.8 µM; in the assay with HL-60(TB) leukemia, 54.7 µM; with OVCAR-4 ovarian, over 66.6 µM. In addition, the total growth inhibition concentration (TGI) in the assay with A549 NSCLC was 44.1 µM; with K-562 leukemia, over 100 µM; in the assay with A498 renal it was 0.193 µM; in the assay with HT29 colon, 0.694 µM.
With `Cc1nn2c(/C=C3/C(=O)Nc4ccc(Cl)cc43)c(-c3ccccc3)nc2s1`, the GI50 was 3.95 µM with SN12C renal; 2.69 µM with DU-145 prostate; 2.79 µM in the assay with OVCAR-3 ovarian; 1.92 µM with CAKI-1 renal; 28.8 µM in the assay with HL-60(TB) leukemia; 1.66 µM with OVCAR-4 ovarian. The GI50 was 2.25 µM in the assay on A549 NSCLC, 3.85 µM in the assay with K-562 leukemia, 1.63 µM with A498 renal and 4.03 µM with HT29 colon. In addition, the TGI in the assay on SN12C renal is 18.4 µM; in the assay on DU-145 prostate, 7.2 µM; with OVCAR-3 ovarian it was 13 µM; in the assay with CAKI-1 renal it was 6.3 µM; in the assay on HL-60(TB) leukemia it was over 100 µM; in the assay on OVCAR-4 ovarian, 3.64 µM. The TGI with A549 NSCLC is 5.51 µM; in the assay on K-562 leukemia, 20.6 µM; in the assay with A498 renal it was 10.6 µM; with HT29 colon, 13.9 µM.
With `Cn1c2ccccc2c2nnc(N/N=C/c3ccccn3)nc21`, the GI50 was 0.286 µM with SN12C renal; 0.377 µM in the assay with DU-145 prostate; 0.489 µM in the assay on OVCAR-3 ovarian; 0.264 µM in the assay with CAKI-1 renal; 0.222 µM in the assay with HL-60(TB) leukemia; 0.419 µM in the assay with OVCAR-4 ovarian. Also, the GI50 is 0.461 µM in the assay on A549 NSCLC, 1.75 µM in the assay on K-562 leukemia, 0.396 µM in the assay with A498 renal and 0.529 µM in the assay on HT29 colon. Also, the TGI in the assay on DU-145 prostate is over 27.3 µM; with OVCAR-3 ovarian, over 33 µM; in the assay on CAKI-1 renal it was 1.19 µM; in the assay with HL-60(TB) leukemia, 3.85 µM; in the assay on OVCAR-4 ovarian, over 58.9 µM; in the assay with A549 NSCLC, over 27.5 µM. Moreover, the TGI in the assay with K-562 leukemia is over 39.6 µM; in the assay on A498 renal it was 5.05 µM; in the assay with HT29 colon it was over 100 µM.
In the case of `CCOc1cc2ncc(C#N)c(Nc3ccc(F)c(Cl)c3)c2cc1NC(=O)/C=C/CN(C)C`, the 50% growth inhibitory concentration (GI50) with SN12C renal is 0.173 µM; in the assay on DU-145 prostate it was 0.05 µM; in the assay with OVCAR-3 ovarian, 0.216 µM; in the assay on CAKI-1 renal, 0.0278 µM; in the assay on HL-60(TB) leukemia it was 0.57 µM; in the assay with OVCAR-4 ovarian it was 0.235 µM. For the same compound, the GI50 in the assay with A549 NSCLC is 0.324 µM; in the assay with K-562 leukemia it was 0.36 µM; in the assay with A498 renal, 0.145 µM; with HT29 colon, 0.827 µM. Further, the TGI with SN12C renal was over 6.03 µM; in the assay on DU-145 prostate it was 1.62 µM; with OVCAR-3 ovarian, 1.77 µM; in the assay on CAKI-1 renal, 0.952 µM; in the assay on HL-60(TB) leukemia it was over 5.51 µM; in the assay with OVCAR-4 ovarian it was 4.1 µM. Further, the TGI is over 9.66 µM in the assay on A549 NSCLC, over 4.21 µM in the assay with K-562 leukemia, 0.799 µM in the assay with A498 renal and over 5.95 µM with HT29 colon.
In the case of `CO/N=C1/NC(=O)/C(=C/c2ccc3ncccc3c2)S1`, the GI50 was 16.3 µM in the assay on SN12C renal; 12.3 µM in the assay with DU-145 prostate; 11.1 µM in the assay on OVCAR-3 ovarian; 8.49 µM in the assay with CAKI-1 renal; 13.8 µM in the assay on HL-60(TB) leukemia; over 25 µM in the assay with OVCAR-4 ovarian. The GI50 with A549 NSCLC is 10.7 µM; with K-562 leukemia it was over 25 µM; in the assay on A498 renal it was 3.41 µM; in the assay on HT29 colon, 16.8 µM. Further, the TGI in the assay on SN12C renal, in the assay with DU-145 prostate, with OVCAR-3 ovarian, in the assay with CAKI-1 renal, in the assay on HL-60(TB) leukemia and in the assay on OVCAR-4 ovarian was over 25 µM in each case. Besides, the TGI is over 25 µM in the assay with A549 NSCLC, over 25 µM in the assay on K-562 leukemia, 11.5 µM with A498 renal and over 25 µM in the assay with HT29 colon.
